Data: patent publication US20110034526A1, “Benzimidazole Compounds” (Wyeth LLC, priority 2007, published 2011)

Legend:
ABCA1 gene = test: Quantitative analysis of ABCA1 gene regulation in THP-1 cells (real-time PCR); type: cell-based, human; settings: Gene regulation by LXR (Human); differentiated THP-1 cells, 18 hrs, ABCA1 mRNA; read-out: EC50 ABCA1
Method: The compounds of formula (I) effect on the regulation of the ABCA1 gene was evaluated using the following procedure.
The THP-1 monocytic cell line (ATCC # TIB-202) was obtained from American Type Culture Collection (Manassas, Va.) and cultured in RPMI 1640 medium (Gibco, Carlsbad, Calif.) containing 10% FBS, 2 mM L-glutamine, and 55 uM beta-Mercaptoethanol (BME). […] Differentiated THP-1 cells were treated with test compounds or ligands dissolved in DMSO (Sigma, D-8779) in culture medium lacking phorbal ester. […] Unstimulated cells treated with vehicle were included as negative controls on each plate. An LXR agonist reference, N-(2,2,2-trifluoro-ethyl)-N-[4-(2,2,2-trifluoro-1-hydroxy-1-trifluoromethyl-ethyl)-phenyl]-benzenesulfonamide (Schultz, Joshua R., Genes & Development (2000), 14(22), 2831-2838), was dosed at 1.0 uM and served as a positive control. […] Results of antagonist analysis are expressed as % antagonism and IC50 (in μM).
Total cellular RNA was isolated from treated cells cultured in 96-well plates using PrepStation 6100 (Applied Biosystems, Foster City, Calif.), according to the manufacturer's recommendations. RNA was resuspended in ribonuclease-free water and stored at −70° C. prior to analysis. RNA concentrations were quantitated with RiboGreen test procedure, #R-11490 (Molecular Probes, Eugene, Oreg.).
Gene-specific mRNA quantitation was performed by real-time PCR with the Perkin Elmer Corp. chemistry on an ABI Prism 7700 Sequence detection system (Applied Biosystems, Foster City, Calif.) according to the manufacturer's instructions. Samples (50-100 ng) of total RNA were assayed in duplicate or triplicate in 50 μl reactions using one-step RT-PCR and the standard curve method to estimate specific mRNA concentrations. Sequences of gene-specific primer and probe sets were designed with Primer Express Software (Applied Biosystems, Foster City, Calif.). […] RT and PCR reactions were performed according to PE Applied Biosystem's protocol for Taqman Gold RT-PCR or Qiagen's protocol for Quantitect probe RT-PCR. Relative levels of ABCA1 mRNA are normalized using GAPDH mRNA or 18S rRNA probe/primer sets purchased commercially (Applied Biosystems, Foster City, Calif.).
Mean, standard deviation and statistical significance of duplicate evaluations of RNA samples were assessed using ANOVA, one-way analysis of variance using SAS analysis.

human LXRα = target: T1, human LXRα (Homo sapiens, UniProt Q13133); test: Ligand-binding test procedure for human LXRα (3H T0901317 tracer, flash plates); settings: biotinylated hLXRα, tracer 3H T0901317
T1 construct: biotin (biotinylated); made in house; host or cells: E. coli (crude extract)
T1 sequence (Q13133 1-447): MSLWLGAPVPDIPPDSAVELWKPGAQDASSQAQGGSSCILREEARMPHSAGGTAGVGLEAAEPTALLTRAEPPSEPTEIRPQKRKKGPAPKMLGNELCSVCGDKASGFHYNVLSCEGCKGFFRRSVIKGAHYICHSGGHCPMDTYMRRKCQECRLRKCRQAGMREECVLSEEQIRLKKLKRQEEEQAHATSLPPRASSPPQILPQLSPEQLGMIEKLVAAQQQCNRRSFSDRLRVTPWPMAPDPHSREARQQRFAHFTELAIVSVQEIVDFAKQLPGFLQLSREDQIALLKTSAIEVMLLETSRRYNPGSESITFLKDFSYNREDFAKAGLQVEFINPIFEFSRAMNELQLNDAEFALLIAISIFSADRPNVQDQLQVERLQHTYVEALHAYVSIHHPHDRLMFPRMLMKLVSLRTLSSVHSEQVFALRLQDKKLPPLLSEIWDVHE
Method: Receptor source: E. coli extract from cells expressing biotinylated hLXRcc. Extract was made in a similar buffer as above, but with 50 mM TRIS.
Washed streptavidin and coated flash plates with wash buffer. Diluted receptor extract to give Bmax ˜4000 cpm and add to the wells. Wrapped the plates in aluminum foil and stored them at +4° C. over night.
(§1) Made a dilution series in DMSO of the test ligands. Made a 5 nM solution of the radioactive tracer in buffer. Mixed 250 μl diluted tracer with 5 μl of the test ligand from each concentration of the dilution series. Washed the receptor-coated flash plates. Added 200 μl per well of the ligand/radiolabel mixture to the receptor-coated flash plates. Wrapped the plates in aluminum foil and incubate at +4° C. over night.
Aspirated wells, and wash the flashed plates. Sealed the plate. Measured the remaining radioactivity in the plate.

human LXRβ = target: T2, human LXRβ (Homo sapiens, UniProt P55055); test: Ligand-binding test procedure for human LXRβ (3H T0901317 tracer, flash plates)
T2 construct: biotin (biotinylated); made in house; host or cells: E. coli (crude extract)
T2 sequence (P55055 1-460): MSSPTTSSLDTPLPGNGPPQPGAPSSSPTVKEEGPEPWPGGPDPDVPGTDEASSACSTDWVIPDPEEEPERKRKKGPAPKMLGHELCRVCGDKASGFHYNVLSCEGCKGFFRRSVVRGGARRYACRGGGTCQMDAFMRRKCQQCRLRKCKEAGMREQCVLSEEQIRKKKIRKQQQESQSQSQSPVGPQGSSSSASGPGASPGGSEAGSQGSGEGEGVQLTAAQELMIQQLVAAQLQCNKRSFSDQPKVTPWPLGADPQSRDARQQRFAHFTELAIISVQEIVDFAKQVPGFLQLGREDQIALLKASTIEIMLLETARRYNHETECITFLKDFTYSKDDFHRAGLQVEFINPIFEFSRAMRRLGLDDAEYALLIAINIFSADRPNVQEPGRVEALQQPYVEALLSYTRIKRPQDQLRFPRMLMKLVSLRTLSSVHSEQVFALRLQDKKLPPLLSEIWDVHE
Method: Receptor source: E. coli extracted from cells expressing biotinylated hLXRβ. Extract was made in a similar buffer as above, but with 50 mM TRIS.
Washed streptavidin and coated flash plates with wash buffer. Diluted receptor extract to give Bmax ˜4000 cpm and add to the wells. Wrapped the plates in aluminum foil and stored them at +4° C. overnight.
as §1
Aspirated wells, and washed the flashed plates. Sealed the plate. Measured the remaining radioactivity in the plate.

Row | Compound | IC50 (human LXRα) [nM] | IC50 (human LXRβ) [nM] | EC50 (ABCA1 gene) [nM]
1 | CCS(=O)(=O)c1cccc(Oc2cccc(-n3c(C)nc4c(Cl)cccc43)c2)c1 [Example 41, 4-chloro-1-{3-[3-(ethylsulfonyl)phenoxy]phenyl}-2-methyl-1H-benzimidazole] | – | – | 745
2 | CS(=O)(=O)c1cccc(Oc2cccc(-n3cnc4c(C(F)(F)F)cccc43)c2)c1 [Example 25, 1-{3-[3-(methylsulfonyl)phenoxy]phenyl}-4-(trifluoromethyl)-1H-benzimidazole] | – | – | 907
3 | CCS(=O)(=O)c1cc(F)cc(Oc2cccc(-n3c(C)nc4c(C(F)(F)F)cccc43)c2)c1 [Example 7, 1-{3-[3-(ethylsulfonyl)-5-fluorophenoxy]phenyl}-2-methyl-4-(trifluoromethyl)-1H-benzimidazole] | – | – | 1240
4 | CCc1nc2c(C(F)(F)F)cccc2n1-c1cccc(Oc2cccc(S(C)(=O)=O)c2)c1 [Example 26, 2-ethyl-1-{3-[3-(methylsulfonyl)phenoxy]phenyl}-4-(trifluoromethyl)-1H-benzimidazole] | – | – | 140
5 | Cc1nc2c(C(F)(F)F)cccc2n1-c1ccc(Oc2cccc(S(C)(=O)=O)c2)cc1 [Example 64, 2-methyl-1-{4-[3-(methylsulfonyl)phenoxy]phenyl}-4-(trifluoromethyl)-1H-benzimidazole] | 8.4 | 1.7 | –
6 | CCS(=O)(=O)c1ccc(Oc2cccc(-n3c(C)nc4c(Cl)cccc43)c2)cc1 [Example 49, 4-chloro-1-{3-[4-(ethylsulfonyl)phenoxy]phenyl}-2-methyl-1H-benzimidazole] | 85 | 17 | –
7 | Cc1nc2c(C(F)(F)F)cccc2n1-c1cccc(Oc2ccc(S(C)(=O)=O)cc2)c1 [Example 14, 2-methyl-1-{3-[4-(methylsulfonyl)phenoxy]phenyl}-4-(trifluoromethyl)-1H-benzimidazole] | 2950 | 435 | –
8 | Cc1nc2c(Cl)cccc2n1-c1cccc(Oc2cc(F)cc(S(C)(=O)=O)c2)c1 [Example 44, 4-chloro-1-{3-[3-fluoro-5-(methylsulfonyl)phenoxy]phenyl}-2-methyl-1H-benzimidazole] | 12 | 3.5 | –
9 | Cc1nc2c(C(F)(F)F)cccc2n1-c1cccc(Oc2ccccc2S(=O)(=O)CCCO)c1 [Example 13, 3-[(2-{3-[2-methyl-4-(trifluoromethyl)-1H-benzimidazol-1-yl]phenoxy}phenyl)sulfonyl]propan-1-ol] | > 1000 | 1900 | –
10 | Cc1nc2c(C(F)(F)F)cccc2n1-c1cccc(Oc2ccccc2S(C)(=O)=O)c1 [Example 12, 2-methyl-1-{3-[2-(methylsulfonyl)phenoxy]phenyl}-4-(trifluoromethyl)-1H-benzimidazole] | > 1000 | > 1000 | –
11 | Cc1nc2c(C(F)(F)F)cccc2n1-c1cccc(Oc2ccc(S(=O)(=O)CCCO)cc2)c1 [Example 15, 3-[(4-{3-[2-methyl-4-(trifluoromethyl)-1H-benzimidazol-1-yl]phenoxy}phenyl)sulfonyl]propan-1-ol] | 4840 | 945 | –
12 | CCS(=O)(=O)c1cc(F)cc(Oc2ccc(Cl)c(-n3c(C)nc4c(Cl)cccc43)c2)c1 [Example 59, 4-chloro-1-{2-chloro-5-[3-(ethylsulfonyl)-5-fluorophenoxy]phenyl}-2-methyl-1H-benzimidazole] | 2000 | 432 | –
13 | Cc1nc2c(Cl)cccc2n1-c1cc(Oc2ccccc2S(C)(=O)=O)ccc1Cl [Example 63, 4-chloro-1-{2-chloro-5-[2-(methylsulfonyl)phenoxy]phenyl}-2-methyl-1H-benzimidazole] | 2500 | 309 | –

Now from value to compound, other results behind:

Row | IC50 (human LXRα) [nM] | IC50 (human LXRβ) [nM] | Compound | EC50 (ABCA1 gene) [nM]
14 | 5200 | 581 | Cc1cc(Oc2ccc(S(C)(=O)=O)cc2)ccc1-n1cnc2c(C(F)(F)F)cccc21 [Example 98, 1-{2-methyl-4-[4-(methylsulfonyl)phenoxy]phenyl}-4-(trifluoromethyl)-1H-benzimidazole] | –
15 | 3690 | 301 | CCS(=O)(=O)c1cc(F)cc(Oc2ccc(-n3c(C)nc4c(C(F)(F)F)cccc43)c(C)c2)c1 [Example 99] | –
16 | 1370 | 92 | CC(C)S(=O)(=O)c1cccc(Oc2cccc(-n3c(C(F)(F)F)nc4c(C(F)(F)F)cccc43)c2)c1 [Example 78, 1-{3-[3-(isopropylsulfonyl)phenoxy]phenyl}-2,4-bis(trifluoromethyl)-1H-benzimidazole] | –
17 | 2580 | 479 | CS(=O)(=O)c1cccc(Oc2ccc(-n3cnc4c(C(F)(F)F)cccc43)c(Cl)c2)c1 [Example 104, 1-{2-chloro-4-[3-(methylsulfonyl)phenoxy]phenyl}-4-(trifluoromethyl)-1H-benzimidazole] | –
18 | 4500 | 278 | CS(=O)(=O)c1cccc(Oc2ccc(-n3c(C(F)(F)F)nc4c(C(F)(F)F)cccc43)cc2)c1 [Example 70, 1-{4-[3-(methylsulfonyl)phenoxy]phenyl}-2,4-bis(trifluoromethyl)-1H-benzimidazole] | –
19 | 8000 | 1110 | CCS(=O)(=O)c1cc(F)cc(Oc2ccc(-n3cnc4c(C(F)(F)F)cccc43)c(C)c2)c1 [Example 97, 1-{4-[3-(ethylsulfonyl)-5-fluorophenoxy]-2-methylphenyl}-4-(trifluoromethyl)-1H-benzimidazole] | –
20 | 4830 | 405 | Cc1cc(Oc2cc(F)cc(S(C)(=O)=O)c2)ccc1-n1c(C)nc2c(C(F)(F)F)cccc21 [Example 101, 1-{4-[3-fluoro-5-(methylsulfonyl)phenoxy]-2-methylphenyl}-2-methyl-4-(trifluoromethyl)-1H-benzimidazole] | –
21 | 1500 | 110 | CS(=O)(=O)c1cccc(COc2ccc(Cl)c(-n3cnc4c(C(F)(F)F)cccc43)c2)c1 [Example 84, 1-(2-chloro-5-{[3-(methylsulfonyl)benzyl]oxy}phenyl)-4-(trifluoromethyl)-1H-benzimidazole] | –
22 | 15100 | 1920 | CCc1nc2c(C(F)(F)F)cccc2n1-c1ccc(Oc2ccc(C#N)c(S(C)(=O)=O)c2)cc1 [Example 88, 4-{4-[2-ethyl-4-(trifluoromethyl)-1H-benzimidazol-1-yl]phenoxy}-2-(methylsulfonyl)benzonitrile] | –
